Measurements from ChEMBL document CHEMBL4819018, “Variously substituted 2-oxopyridine derivatives: Extending the structure-activity relationships for allosteric modulation of the cannabinoid CB2 receptor” (Eur J Med Chem, 2021).
One block for each compound: values may come before it. Active and inactive are the calls of the source. The calls are words filed in the database; no cut-off is given here.

Legend:
Cannabinoid receptor 2 [1] = target: T1, Cannabinoid receptor 2 (Homo sapiens, UniProt P34972); assay: Positive allosteric modulator activity at human CB2R expressed in CHO-K1 cell membrane assessed as increase in [3H]CP55940 binding at 100 nM measured after 60 mins by liquid scintillation spectrometry; assay type: cell membranes
Cannabinoid receptor 2 [2] = target: T1, Cannabinoid receptor 2; assay: Positive allosteric modulator activity at human CB2R expressed in CHO-K1 cell membrane assessed as increase in [3H]CP55940 binding at 10 uM measured after 60 mins by liquid scintillation spectrometry; assay type: cell membranes
Cannabinoid receptor 1 = Cannabinoid receptor 1 (Homo sapiens, UniProt P21554); assay: Modulation of human CB1R expressed in CHO-K1 cell membrane assessed as effect on [3H]CP55940 binding at 0.001 to 10 uM measured after 60 mins by liquid scintillation spectrometry; assay type: cell membranes; details: cho-k1, 1 h, dose 0.001-10 µM
Cannabinoid receptor 2 [3] = target: T1, Cannabinoid receptor 2; assay: Positive allosteric modulator activity at human CB2R expressed in CHO-K1 cell membrane assessed as CP55940 Emax for [35S]GTPgammaS binding at 1 nM measured after 90 mins by liquid scintillation counting analysis (reference value: 57 +/-1.5%); assay type: functional, cell membranes; details: filed as positive allosteric modulator
Cannabinoid receptor 2 [4] = target: T1, Cannabinoid receptor 2; assay: Stimulation of [35S]GTPgammaS binding at human CB2R expressed in CHO-K1 cell membrane at 0.001 to 10 uM measured after 90 mins by liquid scintillation counting analysis; assay type: cell membranes; details: cho-k1, 1.5 h, dose 0.001-10 µM
Cannabinoid receptor 2 [5] = target: T1, Cannabinoid receptor 2; assay: Positive allosteric modulator activity at human CB2R expressed in CHO-K1 cells assessed as potentiation of CP55940-stimulated inhibition of forskolin-induced cAMP accumulation measured after 90 mins by HitHunter cAMP assay; assay type: functional, cell-based
Cannabinoid receptor 2 [6] = target: T1, Cannabinoid receptor 2; assay: Positive allosteric modulator activity at human CB2R expressed in CHO-K1 cells assessed as potentiation of CP55940-stimulated beta-arrestin2 recruitment measured after 90 mins by PathHunter assay; assay type: cell-based
Cannabinoid receptor 2 [7] = target: T1, Cannabinoid receptor 2; assay: Positive allosteric modulator activity at human CB2R expressed in CHO-K1 cells assessed as potentiation of CP55940-stimulated inhibition of forskolin-induced cAMP accumulation measured after 90 mins by HitHunter cAMP assay relative to control; assay type: functional, cell-based; details: filed as positive allosteric modulator
Cannabinoid receptor 2 [8] = target: T1, Cannabinoid receptor 2; assay: Inhibition of [35S]GTPgammaS binding at human CB2R expressed in CHO-K1 cell membrane at 0.001 to 10 uM measured after 90 mins by liquid scintillation counting analysis; assay type: cell membranes; details: cho-k1, 1.5 h, dose 0.001-10 µM
Cannabinoid receptor 2 [9] = target: T1, Cannabinoid receptor 2; assay: Positive allosteric modulator activity at human CB2R expressed in CHO-K1 cell membrane assessed as increase in [3H]CP55940 binding at 0.001 to 1 microM measured after 60 mins by liquid scintillation spectrometry; assay type: cell membranes; details: dose 0.001-1 µM
Cannabinoid receptor 2 [10] = target: T1, Cannabinoid receptor 2; assay: Positive allosteric modulator activity at human CB2R expressed in CHO-K1 cells assessed as potentiation of CP55940-stimulated beta-arrestin2 recruitment measured after 90 mins by PathHunter assay relative to control; assay type: cell-based; details: filed as positive allosteric modulator
Cannabinoid receptor 2 [11] = target: T1, Cannabinoid receptor 2; assay: Positive allosteric modulator activity at human CB2R expressed in CHO-K1 cell membrane assessed as CP55940 Emax for [35S]GTPgammaS binding at 100 nM measured after 90 mins by liquid scintillation counting analysis (reference value: 57 +/-1.5%); assay type: functional, cell membranes; details: filed as positive allosteric modulator
Cannabinoid receptor 2 [12] = target: T1, Cannabinoid receptor 2; assay: Inverse agonist activity at human CB2R expressed in CHO-K1 cell membrane assessed as decrease in [35S]GTPgammaS binding at 1 to 10 uM measured after 90 mins by liquid scintillation counting analysis; assay type: cell membranes; details: cho-k1, 1.5 h, dose 1-10 µM
[13] = filed as positive allosteric modulator

T1 sequence (P34972 whole entry): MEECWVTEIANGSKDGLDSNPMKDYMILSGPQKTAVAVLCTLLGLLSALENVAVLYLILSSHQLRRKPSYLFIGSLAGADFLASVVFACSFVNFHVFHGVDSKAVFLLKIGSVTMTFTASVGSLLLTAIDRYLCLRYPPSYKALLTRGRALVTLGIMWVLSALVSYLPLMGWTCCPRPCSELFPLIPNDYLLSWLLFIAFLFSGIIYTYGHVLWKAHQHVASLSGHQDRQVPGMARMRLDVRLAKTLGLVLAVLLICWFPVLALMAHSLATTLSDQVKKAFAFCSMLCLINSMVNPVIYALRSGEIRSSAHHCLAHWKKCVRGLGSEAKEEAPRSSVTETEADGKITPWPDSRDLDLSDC
Cannabinoid receptor 1, sequence (P21554 whole entry): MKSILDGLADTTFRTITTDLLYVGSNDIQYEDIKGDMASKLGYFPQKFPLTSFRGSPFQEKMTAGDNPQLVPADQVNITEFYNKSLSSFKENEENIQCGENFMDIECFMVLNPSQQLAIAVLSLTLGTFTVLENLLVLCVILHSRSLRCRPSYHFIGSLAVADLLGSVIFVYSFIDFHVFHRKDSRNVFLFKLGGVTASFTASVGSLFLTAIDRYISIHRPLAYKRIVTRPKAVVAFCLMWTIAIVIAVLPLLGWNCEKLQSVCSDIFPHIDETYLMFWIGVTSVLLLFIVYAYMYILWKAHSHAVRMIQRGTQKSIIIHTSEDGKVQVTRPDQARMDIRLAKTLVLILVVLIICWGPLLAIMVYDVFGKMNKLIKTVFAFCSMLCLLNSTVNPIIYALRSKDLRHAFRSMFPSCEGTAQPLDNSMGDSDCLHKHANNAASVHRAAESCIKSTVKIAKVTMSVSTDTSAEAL

Structure (SMILES): Cc1c(Br)cn(Cc2ccc(F)cc2)c(=O)c1NC(=O)OC1CCCCCC1
Activity (Cannabinoid receptor 2 [1]): inactive

Structure (SMILES): CC(=O)Nc1c(C)c(Br)cn(Cc2ccc(F)cc2)c1=O
Activity (Cannabinoid receptor 2 [1]): inactive

Structure (SMILES): Cc1c(Br)cn(CCN2CCOCC2)c(=O)c1NC(=O)C1CCCCCC1
Activity (Cannabinoid receptor 2 [1]): inactive

Structure (SMILES): Cc1c(Br)cn(Cc2cccc(F)c2)c(=O)c1NC(=O)C1CCCCCC1
Activity (Cannabinoid receptor 2 [1]): inactive

Structure (SMILES): Cc1c(Br)cn(Cc2ccc(I)cc2)c(=O)c1NC(=O)C1CCCCCC1
Activity (Cannabinoid receptor 2 [1]): inactive

Structure (SMILES): Cc1c(Br)cn(Cc2ccc(F)cc2)c(=O)c1NC(=O)C1CCC(C)CC1 (centres undefined)
Activity (Cannabinoid receptor 2 [1]): inactive

Structure (SMILES): Cc1c(Br)cn(Cc2ccc(F)cc2)c(=O)c1NC(=O)C1CCCCCC1
EC50 (Cannabinoid receptor 2 [5]): 0.0038 µM | EC50 (Cannabinoid receptor 2 [6]): 0.017 µM | Emax (Cannabinoid receptor 2 [7]): 91% | Emax (Cannabinoid receptor 2 [10]): 79%

Structure (SMILES): Cc1c(Br)cn(Cc2ccc(F)cc2)c(=O)c1N
Activity (Cannabinoid receptor 2 [1]): inactive

Structure (SMILES): CCCCCC(=O)Nc1c(C)c(Br)cn(Cc2ccc(F)cc2)c1=O
Activity (Cannabinoid receptor 2 [1]): inactive

Other lines, results leading:

Activity (Cannabinoid receptor 2 [1]): inactive
Structure (SMILES): Cc1c(Br)cn(Cc2ccc(F)cc2)c(=O)c1NC(=O)NC1CCCCCC1

Activity (Cannabinoid receptor 2 [1]): inactive
Structure (SMILES): Cc1c(Br)cn(Cc2ccc(F)cc2)c(=O)c1[N+](=O)[O-]

Activity (Cannabinoid receptor 2 [1]): inactive
Structure (SMILES): CCCCCn1cc(Br)c(C)c(NC(=O)C2CCCCCC2)c1=O

Activity (Cannabinoid receptor 2 [2]): inactive | Activity (Cannabinoid receptor 2 [1]; [13]): Active
Structure (SMILES): Cc1c(Br)cn(Cc2ccc(Br)cc2)c(=O)c1NC(=O)C1CCCCCC1

Activity (Cannabinoid receptor 2 [1]): inactive
Structure (SMILES): Cc1c(Br)cn(CCCCCO)c(=O)c1NC(=O)C1CCCCCC1

Activity (Cannabinoid receptor 1): Not Active | Emax (Cannabinoid receptor 2 [3]): 73% | Activity (Cannabinoid receptor 2 [2]): inactive | Activity (Cannabinoid receptor 2 [4]): Not Active | EC50 (Cannabinoid receptor 2 [5]): 0.015 µM | EC50 (Cannabinoid receptor 2 [6]): 0.15 µM | Emax (Cannabinoid receptor 2 [7]): 101% | inhibition (INH) (Cannabinoid receptor 2 [8]): Not Active | Activity (Cannabinoid receptor 2 [9]; [13]): 40% | Emax (Cannabinoid receptor 2 [10]): 75% | Emax (Cannabinoid receptor 2 [11]): 67% | Activity (Cannabinoid receptor 2 [1]; [13]): Active
Structure (SMILES): Cc1c(Br)cn(Cc2ccccc2Cl)c(=O)c1NC(=O)C1CCCCCC1

Activity (Cannabinoid receptor 2 [1]): inactive
Structure (SMILES): Cc1c(Br)cn(Cc2ccc(F)cc2)c(=O)c1NC(=O)c1ccccc1

Activity (Cannabinoid receptor 2 [1]): inactive
Structure (SMILES): Cc1c(Br)cn(Cc2ccc(Cl)cc2)c(=O)c1NC(=O)C1CCCCCC1

Activity (Cannabinoid receptor 2 [1]): inactive
Structure (SMILES): Cc1c(Br)cn(Cc2ccccc2)c(=O)c1NC(=O)C1CCCCCC1

Activity (Cannabinoid receptor 1): Not Active | Activity (Cannabinoid receptor 2 [12]): Active | Emax (Cannabinoid receptor 2 [3]): 51% | Activity (Cannabinoid receptor 2 [2]): inactive | EC50 (Cannabinoid receptor 2 [5]): > 10 µM | EC50 (Cannabinoid receptor 2 [6]): > 10 µM | Emax (Cannabinoid receptor 2 [7]): 120% | Activity (Cannabinoid receptor 2 [9]): 20% | Emax (Cannabinoid receptor 2 [10]): 51% | Emax (Cannabinoid receptor 2 [11]): 72% | Activity (Cannabinoid receptor 2 [1]; [13]): Active
Structure (SMILES): Cc1c(Br)cn(Cc2ccccc2F)c(=O)c1NC(=O)C1CCCCCC1
